Among the data in ChEMBL document CHEMBL1137932, “Synthesis of S-alkyl L-homocysteine analogues of glutathione and their kinetic studies with gamma-glutamyl transpeptidase” (Bioorg Med Chem Lett, 2004) are Ki values, retold here.

Assay type in all cases: tissue-based
The target of experiment [1] is T1, Glutathione hydrolase 1 proenzyme (Rattus norvegicus, UniProt P07314). Nature of the experiment: Compound tested for the inhibition of Gamma-glutamyltranspeptidase in rat kidney at pH 8.0 at 37 degree C; N/0=No inhibition observed up to 20 mM.
T1 sequence (P07314 1-379 limits assumed): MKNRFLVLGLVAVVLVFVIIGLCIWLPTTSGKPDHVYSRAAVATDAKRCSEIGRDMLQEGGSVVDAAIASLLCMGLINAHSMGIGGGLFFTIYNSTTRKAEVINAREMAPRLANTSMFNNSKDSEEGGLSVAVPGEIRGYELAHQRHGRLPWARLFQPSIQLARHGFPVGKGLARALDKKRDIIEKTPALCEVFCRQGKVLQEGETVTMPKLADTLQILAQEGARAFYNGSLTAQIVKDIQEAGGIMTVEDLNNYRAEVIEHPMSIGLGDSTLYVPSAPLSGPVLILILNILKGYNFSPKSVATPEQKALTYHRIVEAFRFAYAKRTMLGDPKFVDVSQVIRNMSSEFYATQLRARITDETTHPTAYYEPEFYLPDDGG
T1 sequence (P07314 380-568 limits assumed): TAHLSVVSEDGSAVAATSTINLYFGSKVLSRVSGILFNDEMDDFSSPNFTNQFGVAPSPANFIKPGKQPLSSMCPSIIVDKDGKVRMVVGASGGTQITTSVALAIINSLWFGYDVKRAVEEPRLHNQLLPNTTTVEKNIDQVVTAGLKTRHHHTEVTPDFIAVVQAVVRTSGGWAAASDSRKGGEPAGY
Experiment [2] addresses T1, Glutathione hydrolase 1 proenzyme. Nature of the experiment: Compound tested for the inhibition of Gamma-glutamyltranspeptidase in rat kidney at pH 8.0 at 37 degree C (Competitive inhibition).
The target is the same in experiment [3]. Kind of experiment: Compound tested for the inhibition of Gamma-glutamyltranspeptidase in rat kidney at pH 8.0 at 37 degree C.

On to `CS(=O)(=O)CC[C@H](N)C(=O)O` [METHIONINE SULFONE], for which the Ki entry in experiment [1] is recorded as “No inhibition to 20mM”.

`CSCC[C@H](N)C(=O)O` [METHIONINE] returned a Ki in experiment [2] of 26900 µM.

With `NC(CC[S+]([O-])CCC(=O)NCC(=O)O)C(=O)O` (configuration not stated), in experiment [2], the Ki amounted to 53 µM.

On to `N[C@@H](CCSCCC(=O)NCC(=O)O)C(=O)O`, for which the inhibition constant Ki in experiment [2] was determined as 520 µM.

The molecule `N[C@@H](CC[S+]([O-])Cc1ccc(C(=O)NCC(=O)O)cc1)C(=O)O` (some centres not stated) showed an inhibitory constant (Ki) in experiment [2] of 230 µM.

Turning to `C[S+]([O-])CC[C@H](N)C(=O)O` (some centres not stated) [METHIONINE SULFOXIDE], the Ki in experiment [2] was found to be 5900 µM.

In experiment [3], `N[C@@H](CCS(=O)(=O)CCC(=O)NCC(=O)O)C(=O)O` had an inhibition constant (Ki) of 3500 µM.

Usually Ki stands for a measure of affinity in units of concentration, obtained from inhibition or displacement.
